Reference: patent US8889881B2, “Compound having skin-whitening, anti-oxidizing and PPAR activities and medical use therefor” (Pusan National University Industry —University Cooperation …, priority 2011, dated 2014)

Test system: not given
Experiment: not given
Conditions: not given

Row | SMILES | melting point [°C]
1 | COc1cc(C2N[C@H](C(=O)O)CS2)cc(OC)c1O (mixture of isomers) [Compound 12, (2R/S,4R)-2-(4-hydroxy-3,5-dimethoxyphenyl)thiazolidine-4-carboxylic acid] | 139.6 to 141
2 | COc1ccc(C2N[C@H](C(=O)O)CS2)cc1OC (mixture of isomers) [Compound 8, (2R/S,4R)-2-(3,4-dimethoxyphenyl)thiazolidine-4-carboxylic acid] | 173.6 to 175.4
3 | COc1ccc(-c2nc3cc(Cl)ccc3s2)cc1O [Compound 87, 5-(5-chlorobenzo[d]thiazol-2-yl)-2-methoxyphenol] | 158.2 to 158.6
4 | FC(F)(F)c1ccc2sc(-c3cccc(OCc4ccccc4)c3)nc2c1 [Compound 111, 2-(3-(Benzyloxy)phenyl)-5-(trifluoromethyl)benzo[d]thiazole] | 93.8 to 95.1
5 | COc1cc(-c2nc3cc(Cl)ccc3s2)cc(OC)c1OC [Compound 93, 5-chloro-2-(3,4,5-trimethoxyphenyl)benzo[d]thiazole] | 159.4 to 160
6 | Clc1ccc2sc(-c3ccc(OCc4ccccc4)cc3)nc2c1 [Compound 109, 2-(4-(benzyloxy)phenyl)-5-chlorobenzo[d]thiazole] | 142.7 to 143.3
7 | Oc1ccccc1-c1nc2cc(Cl)ccc2s1 [Compound 92, 2-(5-chlorobenzo[d]thiazol-2-yl)phenol] | 194.2 to 195.7
8 | COc1cc(-c2nc3cc(C(=O)O)ccc3[nH]2)ccc1O [Compound 60, 2-(4-hydroxy-3-methoxyphenyl)-1H-benzo[d]imidazole-5-carboxylic acid] | > 300
9 | COc1ccc(-c2nc3cc(C(=O)O)ccc3[nH]2)cc1O [Compound 62, 2-(3-hydroxy-4-methoxyphenyl)-1H-benzo[d]imidazole-5-carboxylic acid] | 246.6 to 247.7
10 | COc1ccc(-c2nc3cc(C(F)(F)F)ccc3s2)cc1O [Compound 33, 2-methoxy-5-(5-(trifluoromethyl)benzo[d]thiazol-2-yl)phenol] | 142.1 to 144.5
11 | FC(F)(F)c1ccc2sc(-c3ccc(OCc4ccccc4)cc3)nc2c1 [Compound 108, 2-(4-(benzyloxy)phenyl)-5-(trifluoromethyl)benzo[d]thiazole] | 194.3 to 195.1
12 | COc1ccc(-c2nc3cc(C(F)(F)F)ccc3s2)cc1OC [Compound 35, 2-(3,4-dimethoxyphenyl)-5-(trifluoromethyl)benzo[d]thiazole] | 120.4 to 121.6
13 | Oc1cc(O)cc(-c2nc3cc(Cl)ccc3s2)c1 [Compound 90, 5-(5-chlorobenzo[d]thiazol-2-yl)benzene-1,3-diol] | 129.6 to 130.6
14 | COc1ccc(-c2nc3ccccc3s2)c(OC)c1 [Compound 22, 2-(2,4-dimethoxyphenyl)benzo[d]thiazole] | 137.4 to 138.9
15 | Oc1ccc(-c2nc3cc(Cl)ccc3s2)c(O)c1 [Compound 84, 4-(5-chlorobenzo[d]thiazol-2-yl)benzene-1,3-diol] | 277.9 to 280.1
16 | O=C(O)[C@@H]1CSC(c2ccc(O)cc2)N1 (mixture of isomers) [Compound 1, (2R/S,4R)-2-(4-hydroxyphenyl)thiazolidine-4-carboxylic acid] | 161.8 to 164.4
17 | COc1ccc(-c2nc3cc(C(F)(F)F)ccc3s2)c(OC)c1 [Compound 37, 2-(2,4-dimethoxyphenyl)-5-(trifluoromethyl)benzo[d]thiazole] | 140.4 to 141.6
18 | COc1ccc(-c2nc3cc(Cl)ccc3s2)cc1OC [Compound 89, 5-chloro-2-(3,4-dimethoxyphenyl)benzo[d]thiazole] | 165.2 to 167.1

Biological target: T1, PPAR alpha-LBD (Homo sapiens, UniProt Q07869)
T1 sequence (Q07869 239-466 limits assumed): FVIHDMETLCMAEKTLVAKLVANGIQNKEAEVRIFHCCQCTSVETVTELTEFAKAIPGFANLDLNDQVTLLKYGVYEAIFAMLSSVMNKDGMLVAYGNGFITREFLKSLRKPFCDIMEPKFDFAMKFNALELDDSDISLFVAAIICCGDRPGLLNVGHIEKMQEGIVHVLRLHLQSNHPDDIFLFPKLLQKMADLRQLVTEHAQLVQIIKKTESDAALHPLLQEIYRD
Experiment: PPAR assay, PPARα
Conditions: sample final concentration 100 μM; positive control fenofibrate; FIGS. 5 and 6

Row | SMILES | PPARα activation (competitive activation rate), compared with fenofibrate
19 | c1ccc(COc2ccc(-c3nc4ccccc4[nH]3)cc2)cc1 [Compound 114, 2-(4-(benzyloxy)phenyl)-1H-benzo[d]imidazole] | very excellent PPARα activation agent compared to fenofibrate
